From patent US20120129811A1, “TRICYCLIC INHIBITORS OF PRO-MATRIX METALLOPROTEINASE ACTIVATION” (priority 2010, published 2012) come the findings set out here.

For experiment [1], the target named is T1, full-length proMMP9(1-707) activation by catalytic MMP3 (Homo sapiens, UniProt P14780, R574P).
T1 construct: made in house; host or cells: proMMP9: HEK293 (secreted); MMP3: E. coli
The experiment can be described thus: proMMP9/MMP3 P126 Activation Assay. The class given is biochemical. How it is done:
proMMP9/MMP3 P126 Activation Assay
The reaction volume was 50 μL. […] Reactivity of residual MMP3 towards P-126 substrate was minimal under these conditions.

Experiment [2] has as its target T2, proMMP9(67-444;ΔFnII) (SEQ ID NO:5) (Homo sapiens, UniProt P14780, DEL216-390).
T2 construct: start methionine (N); made in house; host or cells: E. coli BL21(DE3) RIL
T2 sequence (P14780 with tags, fused parts or gaps DEL216-390): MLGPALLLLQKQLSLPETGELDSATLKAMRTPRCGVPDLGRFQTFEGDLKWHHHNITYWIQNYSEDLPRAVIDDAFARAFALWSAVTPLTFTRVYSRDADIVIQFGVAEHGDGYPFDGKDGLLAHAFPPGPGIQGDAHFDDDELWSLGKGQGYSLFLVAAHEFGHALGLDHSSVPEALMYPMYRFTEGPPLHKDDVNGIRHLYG
The experiment can be described thus: ThermoFluor binding assay with proMMP9(67-444;ΔFnII). An outline of the steps: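 Thermal shift of 3.5 μM proMMP9(67-444;ΔFnII), desalted beforehand, with 50 μM 1,8-ANS in 50 mM HEPES pH 7.0, 100 mM NaCl, 2.5 mM MgCl2, 300 μM CaCl2, 0.001% Tween-20. Heated 40–90 °C at 1 °C/min, fluorescence read at 500 nm; binding fitted from Tm shifts using DSC- and ThermoFluor-derived unfolding parameters.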
Background: DSF heats the sample and reads unfolding from a dye or from intrinsic fluorescence.

Experiment [3] has as its target T3, proMMP13(1-268) (SEQ ID NO:7) (Homo sapiens, UniProt P45452).
T3 construct: 6xHis (C); made in house; host or cells: HEK293 (transient, secreted)
The experiment can be described thus: ThermoFluor binding assay with proMMP13(1-268). The procedure: The ThermoFluor® (TF) assay is a 384-well plate-based binding assay that measures thermal stability of proteins (Biomol Screen 2001, 6, 429-40; Biochemistry 2005, 44, 5258-66). The experiments were carried out using instruments available from Johnson & Johnson Pharmaceutical Research & Development, LLC. TF dye used in all experiments was […] (1,8-ANS) (Invitrogen: A-47).
Compounds were arranged in a pre-dispensed plate (Greiner Bio-one: 781280), wherein compounds were serially diluted in 100% DMSO across 11 columns within a series. Columns 12 and 24 were used as DMSO reference and contained no compound. For multiple compound concentration-response experiments, the compound aliquots (50 nL) were robotically predispensed directly into black 384-well polypropylene PCR microplates (Abgene: TF-0384/k) using a Cartesian Hummingbird liquid handler (DigiLab, Holliston, Mass.). Following compound dispense, protein and dye solutions were added to achieve the final assay volume of 3 μL. The assay solutions were overlayed with 1 μL of silicone oil (Fluka, type DC 200: 85411) to prevent evaporation.
Assay plates were robotically loaded onto a thermostatically controlled PCR-type thermal block and then heated from 40 to 90° C. at a ramp-rate of 1° C./min for all experiments. Fluorescence was measured by continuous illumination with UV light (Hamamatsu LC6) supplied via fiber optics and filtered through a band-pass filter (380-400 nm; >60D cutoff). Fluorescence emission of the entire 384-well plate was detected by measuring light intensity using a CCD camera (Sensys, Roper Scientific) filtered to detect 500±25 nm, resulting in simultaneous and independent readings of all 384 wells. A single image with 20-sec exposure time was collected at each temperature, and the sum of the pixel intensity in a given area of the assay plate was recorded vs temperature and fit to standard equations to yield the Tm (J Biomol Screen 2001, 6, 429-40).
Thermodynamic parameters necessary for fitting compound binding for each proMMP were estimated by differential scanning calorimetry (DSC) and from ThermoFluor® data. The heat capacity of unfolding for each protein was estimated from the molecular weight and from ThermoFluor® dosing data.
ThermoFluor® with proMMP13(1-268) (SEQ ID NO: 7)
The proMMP13(1-268) (SEQ ID NO:7) protein sample preparations included a desalting buffer exchange step via a PD-10 gravity column (GE Healthcare). The desalting buffer exchange was performed prior to diluting the protein to the final assay concentration of 3.5 μM. The concentration of proMMP13(1-268) (SEQ ID NO:7) was estimated spectrophotometrically based on a calculated extinction coefficient of ε280=37000 M^−1 cm^−1, a calculated molecular weight of 30.8 kDa, and calculated pI of 5.33. ThermoFluor® reference conditions were defined as follows: 100 μg/mL proMMP13(1-268) (SEQ ID NO:7), 25 μM 1,8-ANS, pH 7.0 Buffer (50 mM HEPES pH 7.0, 100 mM NaCl, 0.001% Tween-20, 2.5 mM MgCl2, 300 μM CaCl2). The thermodynamic parameters for proMMP13(1-268) (SEQ ID NO:7) are as follows: Tm (° C.)=67 (+/−0.1), ΔUH(Tm)) (cal mol^−1)=107000(+/−5000), ΔUSTm (cal mol^−1 K^−1)=318, ΔUCp (cal mol^−1 K^−1)=2600.

Experiment [4] concerns the target T4, proMMP9(20-445;ΔFnII) (SEQ ID NO:6) (Homo sapiens, UniProt P14780, DEL216-390).
T4 construct: start methionine (N); made in house; host or cells: E. coli BL21(DE3) RIL
T4 sequence (P14780 with tags, fused parts or gaps DEL216-390): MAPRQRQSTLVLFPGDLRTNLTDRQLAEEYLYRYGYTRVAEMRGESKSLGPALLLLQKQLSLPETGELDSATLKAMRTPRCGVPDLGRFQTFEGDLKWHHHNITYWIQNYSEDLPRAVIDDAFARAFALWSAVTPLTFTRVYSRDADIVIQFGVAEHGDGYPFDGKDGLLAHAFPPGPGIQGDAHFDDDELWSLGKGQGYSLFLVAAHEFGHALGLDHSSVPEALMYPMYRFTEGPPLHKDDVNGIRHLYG
The experiment can be described thus: ThermoFluor binding assay with proMMP9(20-445;ΔFnII). Put shortly:
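Protein thermal stability was measured with 2.8 μM proMMP9(20-445;ΔFnII) and 50 μM 1,8-ANS in 50 mM HEPES pH 7.0, 100 mM NaCl, 0.001% Tween-20, 2.5 mM MgCl2, 300 μM CaCl2, across serial compound dilutions. Samples were heated 40–90° C at 1° C/min with fluorescence read at 500 nm. Tm was fitted, and binding was derived from thermodynamic parameters obtained by DSC and ThermoFluor.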

pIC50, pKd: −log10 of the molar value. Where a name gives a salt, the structure may show the parent alone.

T1 sequence (P14780 20-707 R574P): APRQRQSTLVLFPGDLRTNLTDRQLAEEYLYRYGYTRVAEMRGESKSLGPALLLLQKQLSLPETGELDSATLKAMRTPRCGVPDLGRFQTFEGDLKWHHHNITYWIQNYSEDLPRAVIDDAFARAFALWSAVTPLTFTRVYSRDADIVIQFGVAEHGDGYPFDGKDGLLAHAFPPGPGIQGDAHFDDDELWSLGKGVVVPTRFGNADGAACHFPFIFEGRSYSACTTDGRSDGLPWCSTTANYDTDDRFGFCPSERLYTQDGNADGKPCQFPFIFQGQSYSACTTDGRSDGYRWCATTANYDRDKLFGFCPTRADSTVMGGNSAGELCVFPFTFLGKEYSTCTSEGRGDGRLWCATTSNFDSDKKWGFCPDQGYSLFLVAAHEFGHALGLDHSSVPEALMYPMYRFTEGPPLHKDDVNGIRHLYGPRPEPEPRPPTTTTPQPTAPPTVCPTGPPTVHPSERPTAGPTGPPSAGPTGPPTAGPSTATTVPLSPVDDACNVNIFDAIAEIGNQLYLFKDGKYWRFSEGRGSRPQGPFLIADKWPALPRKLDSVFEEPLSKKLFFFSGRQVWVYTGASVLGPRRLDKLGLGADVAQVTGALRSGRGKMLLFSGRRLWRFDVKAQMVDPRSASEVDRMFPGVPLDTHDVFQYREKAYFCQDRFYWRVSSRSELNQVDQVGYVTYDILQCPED

A word on the pIC50: it is −log10 of the IC50, conventionally taken in molar units. By pKd is commonly meant −log10 of the Kd, conventionally taken in molar units. Low readings indicate a large Kd, high ones a small Kd. In the case of `CCn1c(C)nc2ccc3sc(Nc4cc(C(N)=O)ccc4OC(C)C)nc3c21` [Example 35, 3-(8-Ethyl-7-methyl-8H-imidazo[4′,5′:3,4]benzo[2,1-d]thiazol-2-ylamino)-4-isopropoxy-benzamide.HCl], the pIC50 in experiment [1] is 7.28. Besides, the pKd was 6.82 in experiment [2], 6.37 in experiment [3] and 7.26 in experiment [4].

Take `Cc1nc2c(s1)-c1nc(Nc3cc(C(N)=O)ccc3OC(C)C)sc1CC2` [Example 12, 4-Isopropoxy-3-(2-methyl-4,5-dihydro-benzo[1,2-d;3,4-d′]-bisthiazol-7-ylamino)-benzamide.TFA]: in experiment [1], the pIC50 is 5.96. For the same compound, the pKd in experiment [2] is 5.42; in experiment [3], 5.19; in experiment [4], 5.77.

For `COc1ccc(S(N)(=O)=O)cc1Nc1nc2c(ccc3c2ncn3C)s1` [Example 54, 4-Methoxy-3-(6-methyl-6H-imidazo[4′,5′:3,4]benzo[2,1-d]thiazol-2-ylamino)-benzenesulfonamide.HCl], the negative-log IC50 (pIC50) in experiment [1] was 6.62. Besides, the figures for the pKd in experiment [2], in experiment [3] and in experiment [4] were 5.96, 4.96 and 5.80, respectively.

`COc1ccc(S(C)(=O)=O)cc1Nc1nc2c(ccc3c2ncn3C)s1` [Example 52, (5-Methanesulfonyl-2-methoxy-phenyl)-(6-methyl-6H-imidazo[4′,5′:3,4]benzo[2,1-d]thiazol-2-yl)-amine.HCl] showed a pIC50 in experiment [1] of 6.80. Besides, the negative logarithm of the Kd (pKd) was 6.22 in experiment [2], 5.66 in experiment [3] and 5.85 in experiment [4].

In the case of `COc1ccc(S(=O)(=O)N(C)C)cc1Nc1nc2c(ccc3c2ncn3C)s1` [Example 55, 4-Methoxy-N,N-dimethyl-3-(6-methyl-6H-imidazo[4′,5′:3,4]benzo[2,1-d]thiazol-2-ylamino)-benzenesulfonamide.HCl], the negative logarithm of the IC50 (pIC50) in experiment [1] was 6.28. The values for the pKd in experiment [2], in experiment [3] and in experiment [4] were 5.66, 5.68 and 5.17, respectively.

With `CC(C)Oc1ccc(C(N)=O)cc1Nc1nc2c(ccc3[nH]c(Cl)nc32)s1` [Example 25, 3-(7-Chloro-6H-imidazo[4′,5′:3,4]benzo[2,1-d]thiazol-2-ylamino)-4-isopropoxy-benzamide.HCl], in experiment [1], the pIC50 is 6.31. The values for the pKd in experiment [2], in experiment [3] and in experiment [4] were 6.70, 5.57 and 6.37, respectively.

`CC(C)Oc1ccc(C(N)=O)cc1Nc1nc2c(ccc3[nH]cnc32)s1` [Example 29, 3-(6H-Imidazo[4′,5′:3,4]-benzo[2,1-d]thiazol-2-ylamino)-4-isopropoxy-benzamide.HCl] showed a pIC50 in experiment [1] of 6.26. The pKd in experiment [2] was 6.20; in experiment [3], 5.85; in experiment [4], 6.10.

Take `Cn1cnc2c3nc(Nc4ccccc4OC(F)(F)F)sc3ccc21` [Example 58, (6-Methyl-6H-imidazo[4′,5′:3,4]-benzo[2,1-d]thiazol-2-yl)-(2-trifluoromethoxy-phenyl)-amine.HCl]: the negative-log IC50 (pIC50) in experiment [1] is 6.42. The values for the negative-log Kd (pKd) in experiment [2], in experiment [3] and in experiment [4] were 6.03, 4.68 and 5.59, respectively.

In turn, `CCOc1ccccc1Nc1nc2c(ccc3c2ncn3C)s1` [Example 37, (2-Ethoxy-phenyl)-(6-methyl-6H-imidazo[4′,5′:3,4]benzo[2,1-d]thiazol-2-yl)-amine.HCl] had a pIC50 in experiment [1] of 6.51. Also, the pKd is 6.44 in experiment [2], 5.23 in experiment [3] and 5.64 in experiment [4].

The compound `COc1c(Nc2nc3c(ccc4c3ncn4C)s2)cc(C(N)=O)c(F)c1F` [Example 44, 2,3-Difluoro-4-methoxy-5-(6-methyl-6H-imidazo[4′,5′:3,4]-benzo[2,1-d]thiazol-2-ylamino)-benzamide.HCl] gave a pIC50 in experiment [1] of 5.42. In addition, the figures for the negative-log Kd (pKd) in experiment [2], in experiment [3] and in experiment [4] were 5.21, 5.00 and 4.60, respectively.

The compound `COc1ccccc1Nc1nc2c(ccc3sc(N)nc32)s1` [Example 1, N^7-(2-Methoxy-phenyl)-benzo[2,1-d;3,4-d′]-bisthiazole-2,7-<diamine.TFA] had a pIC50 in experiment [1] of 5.55. In addition, the pKd is 6.09 in experiment [2], 5.15 in experiment [3] and 5.44 in experiment [4].

With `COc1ccc(C(N)=O)cc1Nc1nc2c(s1)CCc1ncccc1-2` [Example 117, 3-(4,5-Dihydro-thiazolo[4,5-f]quinolin-2-ylamino)-4-methoxy-benzamide], in experiment [1], the pIC50 was 5.22. Moreover, the pKd in experiment [2] was 5.46; in experiment [3], 4.49; in experiment [4], 5.06.

Turning to `CC(C)Oc1ccc(S(N)(=O)=O)cc1Nc1nc2c(ccc3c2ncn3C)s1` [Example 28, 4-Isopropoxy-3-(6-methyl-6H-imidazo[4′,5′:3,4]benzo[2,1-d]thiazol-2-ylamino)-benzenesulfonamide.HCl], the pIC50 in experiment [1] was 6.74. The pKd is 5.66 in experiment [2], 5.46 in experiment [3] and 6.06 in experiment [4].

With `CC(C)Oc1ccccc1Nc1nc2c(ccc3c2ncn3C)s1` [Example 32, (2-Isopropoxy-phenyl)-(6-methyl-6H-imidazo[4′,5′:3,4]benzo[2,1-d]thiazol-2-yl)-amine.HCl], in experiment [1], the pIC50 was 6.46. Besides, the pKd in experiment [2] is 6.27; in experiment [3] it was 5.04; in experiment [4] it was 5.43.

`Cc1nc2ccc3sc(Nc4cc(C(=O)O)ccc4OC(C)C)nc3c2s1` [Example 24, 4-Isopropoxy-3-(2-methyl-benzo[1,2-d;3,4-d′]bisthiazol-7-ylamino)-benzoic acid.HCl] showed a pIC50 in experiment [1] of 6.42. Besides, the figures for the negative-log Kd (pKd) in experiment [2], in experiment [3] and in experiment [4] were 6.28, 5.08 and 5.92, respectively.

On to `CC(C)Oc1ccc(C(N)=O)cc1Nc1nc2c(ccc3nc(N)sc32)s1` [Example 5, 3-(2-Amino-benzo[1,2-d;3,4-d′]bisthiazol-7-ylamino)-4-isopropoxy-benzamide.TFA], for which, in experiment [1], the pIC50 is 6.04. Besides, the values for the negative-log Kd (pKd) in experiment [2], in experiment [3] and in experiment [4] were 6.39, 6.14 and 6.49, respectively.
